Reference: ChEMBL document CHEMBL4052687, “Synthesis of MeON-neoglycosides of digoxigenin with 6-deoxy- and 2,6-dideoxy-d-glucose derivatives and their anticancer activity” (2017)
The source made the active and inactive calls. The calls are words filed in the database; no cut-off is given here.

Columns and labels:
NCI-H460 [1] = assay: Cytotoxicity in human NCI-H460 cells assessed as cell viability at 50 nM incubated for 48 hrs by MTT assay; type: functional; settings: NCI-H460, 48 h, read-out: Activity
[2] = target: Nuclear receptor subfamily 4immunitygroup A member 1 (Homo sapiens) (UniProt P22736); assay: Induction of Nur77 protein translocation from nucleus to cytoplasm in human NCI-H460 cells at 20 nM incubated for 3 hrs by immunofluorescence microscopy; type: cell-based
Nuclear receptor subfamily 4immunitygroup A member 1 (Homo sapiens), sequence (P22736 whole entry): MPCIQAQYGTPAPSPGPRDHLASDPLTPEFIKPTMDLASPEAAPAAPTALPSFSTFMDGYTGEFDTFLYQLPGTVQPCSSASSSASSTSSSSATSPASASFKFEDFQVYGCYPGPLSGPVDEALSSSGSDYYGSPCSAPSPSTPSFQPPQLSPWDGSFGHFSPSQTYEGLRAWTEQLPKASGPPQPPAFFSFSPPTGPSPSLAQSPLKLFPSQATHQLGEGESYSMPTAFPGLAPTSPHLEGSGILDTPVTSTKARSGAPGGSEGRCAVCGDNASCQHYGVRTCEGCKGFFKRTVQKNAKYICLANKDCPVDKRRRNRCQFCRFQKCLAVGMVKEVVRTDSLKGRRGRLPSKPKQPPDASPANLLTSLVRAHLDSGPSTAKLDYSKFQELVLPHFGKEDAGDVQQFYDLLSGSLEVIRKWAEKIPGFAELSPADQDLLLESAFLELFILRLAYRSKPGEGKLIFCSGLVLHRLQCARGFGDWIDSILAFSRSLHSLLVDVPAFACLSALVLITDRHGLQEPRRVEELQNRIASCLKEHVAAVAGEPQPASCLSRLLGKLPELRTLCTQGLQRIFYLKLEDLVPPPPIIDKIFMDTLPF

NCI-H460 [3] = assay: Induction of Nur77 protein expression in human NCI-H460 cells at 20 nM incubated for 3 hrs by Western blot method relative to digoxin; type: functional, cell-based

Structure (SMILES) | viability at 0.05 µM (NCI-H460 [1]) [%] | Activity [2] | Activity (NCI-H460 [3])
CO[C@@H]1[C@@H](O)[C@H](O)[C@@H](C)O[C@H]1N(OC)[C@H]1CC[C@@]2(C)[C@H](CC[C@@H]3[C@@H]2C[C@@H](O)[C@]2(C)[C@@H](C4=CC(=O)OC4)CC[C@]32O)C1 | > 90 |  | 
CO[C@@H]1[C@@H](O)[C@H](OC)[C@@H](C)O[C@H]1N(OC)[C@H]1CC[C@@]2(C)[C@H](CC[C@@H]3[C@@H]2C[C@@H](O)[C@]2(C)[C@@H](C4=CC(=O)OC4)CC[C@]32O)C1 | > 90 | Active | Active
CON([C@H]1CC[C@@]2(C)[C@H](CC[C@@H]3[C@@H]2C[C@@H](O)[C@]2(C)[C@@H](C4=CC(=O)OC4)CC[C@]32O)C1)[C@@H]1O[C@H](CO)[C@@H](O)[C@H](O)[C@H]1O | > 90 |  | 
CO[C@@H]1[C@@H](C)O[C@@H](N(OC)[C@H]2CC[C@@]3(C)[C@H](CC[C@@H]4[C@@H]3C[C@@H](O)[C@]3(C)[C@@H](C5=CC(=O)OC5)CC[C@]43O)C2)C[C@H]1OC | > 90 |  | 
CO[C@@H]1[C@@H](C)O[C@@H](N(OC)[C@@H]2CC[C@@]3(C)[C@H](CC[C@@H]4[C@@H]3C[C@@H](O)[C@]3(C)[C@@H](C5=CC(=O)OC5)CC[C@]43O)C2)C[C@H]1OC | > 90 |  | 
CO[C@@H]1[C@@H](OC)[C@H](O)[C@@H](C)O[C@H]1N(OC)[C@H]1CC[C@@]2(C)[C@H](CC[C@@H]3[C@@H]2C[C@@H](O)[C@]2(C)[C@@H](C4=CC(=O)OC4)CC[C@]32O)C1 | > 90 |  | 
CON[C@@H]1CC[C@@]2(C)[C@H](CC[C@@H]3[C@@H]2C[C@@H](O)[C@]2(C)[C@@H](C4=CC(=O)OC4)CC[C@]32O)C1 |  |  | inactive
CO[C@H]1[C@H](O)[C@@H](O)[C@H](N(OC)[C@H]2CC[C@@]3(C)[C@H](CC[C@@H]4[C@@H]3C[C@@H](O)[C@]3(C)[C@@H](C5=CC(=O)OC5)CC[C@]43O)C2)O[C@@H]1C | > 90 |  | 
CO[C@@H]1C[C@H](N(OC)[C@H]2CC[C@@]3(C)[C@H](CC[C@@H]4[C@@H]3C[C@@H](O)[C@]3(C)[C@@H](C5=CC(=O)OC5)CC[C@]43O)C2)O[C@H](C)[C@H]1O | > 90 |  | 
CO[C@@H]1[C@@H](O)[C@H](N(OC)[C@@H]2CC[C@@]3(C)[C@H](CC[C@@H]4[C@@H]3C[C@@H](O)[C@]3(C)[C@@H](C5=CC(=O)OC5)CC[C@]43O)C2)O[C@H](C)[C@H]1OC | > 90 | Active | 
CO[C@@H]1[C@@H](O)[C@H](N(OC)[C@H]2CC[C@@]3(C)[C@H](CC[C@@H]4[C@@H]3C[C@@H](O)[C@]3(C)[C@@H](C5=CC(=O)OC5)CC[C@]43O)C2)O[C@H](C)[C@H]1OC | > 90 |  | 
CON[C@H]1CC[C@@]2(C)[C@H](CC[C@@H]3[C@@H]2C[C@@H](O)[C@]2(C)[C@@H](C4=CC(=O)OC4)CC[C@]32O)C1 |  |  | inactive
CON([C@@H]1CC[C@@]2(C)[C@H](CC[C@@H]3[C@@H]2C[C@@H](O)[C@]2(C)[C@@H](C4=CC(=O)OC4)CC[C@]32O)C1)[C@@H]1O[C@H](CO)[C@@H](O)[C@H](O)[C@H]1O | > 90 | Active | 
CO[C@H]1[C@H](O)[C@@H](O)[C@H](N(OC)[C@@H]2CC[C@@]3(C)[C@H](CC[C@@H]4[C@@H]3C[C@@H](O)[C@]3(C)[C@@H](C5=CC(=O)OC5)CC[C@]43O)C2)O[C@@H]1C | > 90 |  | 
CON([C@H]1CC[C@@]2(C)[C@H](CC[C@@H]3[C@@H]2C[C@@H](O)[C@]2(C)[C@@H](C4=CC(=O)OC4)CC[C@]32O)C1)[C@H]1O[C@@H](CO)[C@H](O)[C@@H](O)[C@@H]1O | > 90 | Active | Active
CON([C@H]1CC[C@@]2(C)[C@H](CC[C@@H]3[C@@H]2C[C@@H](O)[C@]2(C)[C@@H](C4=CC(=O)OC4)CC[C@]32O)C1)[C@@H]1O[C@H](C)[C@@H](O)[C@H](O)[C@H]1O | > 90 |  | 
CO[C@@H]1[C@@H](O)[C@H](O)[C@@H](C)O[C@H]1N(OC)[C@@H]1CC[C@@]2(C)[C@H](CC[C@@H]3[C@@H]2C[C@@H](O)[C@]2(C)[C@@H](C4=CC(=O)OC4)CC[C@]32O)C1 | > 90 |  | Active
CO[C@@H]1[C@@H](OC)[C@H](O)[C@@H](C)O[C@H]1N(OC)[C@@H]1CC[C@@]2(C)[C@H](CC[C@@H]3[C@@H]2C[C@@H](O)[C@]2(C)[C@@H](C4=CC(=O)OC4)CC[C@]32O)C1 | > 90 | Active | 
CON([C@@H]1CC[C@@]2(C)[C@H](CC[C@@H]3[C@@H]2C[C@@H](O)[C@]2(C)[C@@H](C4=CC(=O)OC4)CC[C@]32O)C1)[C@@H]1O[C@H](C)[C@@H](O)[C@H](O)[C@H]1O | > 90 |  | Active
CO[C@@H]1[C@@H](O)[C@H](OC)[C@@H](C)O[C@H]1N(OC)[C@@H]1CC[C@@]2(C)[C@H](CC[C@@H]3[C@@H]2C[C@@H](O)[C@]2(C)[C@@H](C4=CC(=O)OC4)CC[C@]32O)C1 | > 90 | Active | 
CO[C@@H]1[C@@H](O)[C@H](N(OC)[C@@H]2CC[C@@]3(C)[C@H](CC[C@@H]4[C@@H]3C[C@@H](O)[C@]3(C)[C@@H](C5=CC(=O)OC5)CC[C@]43O)C2)O[C@H](C)[C@H]1O | > 90 |  | 
CO[C@@H]1C[C@H](N(OC)[C@@H]2CC[C@@]3(C)[C@H](CC[C@@H]4[C@@H]3C[C@@H](O)[C@]3(C)[C@@H](C5=CC(=O)OC5)CC[C@]43O)C2)O[C@H](C)[C@H]1O | > 90 | Active | 
CON([C@@H]1CC[C@@]2(C)[C@H](CC[C@@H]3[C@@H]2C[C@@H](O)[C@]2(C)[C@@H](C4=CC(=O)OC4)CC[C@]32O)C1)[C@H]1O[C@@H](CO)[C@H](O)[C@@H](O)[C@@H]1O | > 90 |  | Active
CO[C@@H]1[C@@H](O)[C@H](N(OC)[C@H]2CC[C@@]3(C)[C@H](CC[C@@H]4[C@@H]3C[C@@H](O)[C@]3(C)[C@@H](C5=CC(=O)OC5)CC[C@]43O)C2)O[C@H](C)[C@H]1O | > 90 | Active | 
